Tests used:
HRV14 or HRV16 = settings: cited from earlier work
HSV-1 [1] = test: TCID50 titration of HSV-1 on PER.C6 with acyclovir, CPE score; assay type: cell-based, Herpes Simplex Virus type 1
Experimental: (§1) FIG. 16. Virustatic activity of acyclovir for Herpes Simplex Virus type 1 and type 2 (HSV-1 and HSV-2) using PER.C6 cells as a substrate for virus replication and TCID50 calculations based on CPE score on day 6 post infection.
(§2) To test the feasibility of PER.C6 for antiviral drug screening, the acyclovir/HSV system was used. A TCID50 titration of both a HSV-1 as well as a HSV-2 stock virus produced on PER.C6 (titer 6000 TCID50/ml) was performed in either the absence or in the presence of different concentrations of acyclovir. PER.C6 cells were seeded in a 96-wells tissue culture plate at a concentration of 1×10^5 cells/well, in normal culture medium, DMEM (Gibco) supplemented with heat inactivated FBS (origin US, Gibco) and 1 ml 4.9 M MgCl2 (Sigma). The day after seeding, cells were pre-incubated with the appropriate acyclovir (20 mg/ml, Genthon) concentration being, 200, 20, 2, 0,2 and 0 μg/ml, diluted in normal culture medium, for 2 hours at 37° C. and 10% CO2. A total of 20 wells were used per concentration. […]
(§3) At day 6 post infection, CPE was scored in each of the wells and TCID50 calculated according to the Karber method (1931), which is well known to persons skilled in the art. In addition, viable cells were scored with the MTS assay. […] 10% CO2, followed by reading the OD490 in an ELISA reader.

HSV-1 [2] = test: Viable cell scoring by MTS assay of HSV-1 infected PER.C6 with acyclovir; assay type: cell-based, Herpes Simplex Virus type 1; settings: HSV-1 on PER.C6; day 6 post infection
Experimental: (§4) FIG. 17. Virustatic effect of acyclovir against (A) HSV-1 and (B) HSV-2 using infection of PER.C6 with different 10 fold serial dilutions of virus and viable cell scoring by MTS assay on day 6 post infection.
as §2, §3

HSV = settings: A549 cells; cited from earlier work
HSV-2 [3] = test: Viable cell scoring by MTS assay of HSV-2 infected PER.C6 with acyclovir; assay type: cell-based, Herpes Simplex Virus type 2; settings: HSV-2 on PER.C6; day 6 post infection
Experimental: as §4, §2, §3

HSV-2 [4] = test: TCID50 titration of HSV-2 on PER.C6 with acyclovir, CPE score; assay type: cell-based, Herpes Simplex Virus type 2
Experimental: as §1, §2, §3

Row | Compound | cytopathic effect in infected cells (HRV14 or HRV16; cells infected with HRV14 or HRV16) | rhinovirus replication in vitro (HRV14 or HRV16; in vitro) | TCID50 reduction as compared to the control (HSV-1 [1]; HSV-1 on PER.C6, 20 μg/ml of acyclovir, CPE score day 6 post infection) | virustatic effect (HSV-1 [1]; HSV-1 propagated on PER.C6 cells) | prevention of cell death caused by virus (viable cells, MTS) (HSV-1 [2]) | HSV replication (HSV) | viable cells scored with MTS assay compared with TCID50 result (HSV-2 [3]) | amount of acyclovir for 1000 fold TCID50 reduction, relative to HSV-1 (HSV-2 [4]; HSV-2 on PER.C6, CPE score day 6 post infection) | virustatic effect (HSV-2 [4]; HSV-2 propagated on PER.C6 cells)
1 | c1ccc2c(c1)oc1ccccc12 [Dibenzofuran] | hinder the cytopathic effect | block rhinovirus replication in vitro | – | – | – | – | – | – | –
2 | Nc1nc2c(ncn2COCCO)c(=O)[nH]1 [acyclovir, 2-amino-1,9-dihydro-9-[(2-hydroethoxy)methyl]-6H-purin-6-one] | – | – | ~1000 fold | clear virustatic effect | more effective at a lower dosage in preventing cell death caused by HSV-1 than by HSV-2 | inhibited HSV replication | comparable results were obtained | required a higher amount of acyclovir | clear virustatic effect
